{
  "source": "patent US20200048668A1",
  "about": "“BIOLOGICAL PRODUCTION OF ß-LACTONES” (Regents of the University of Minnesota, priority 2018, published 2020)",
  "key": {"pancreatic lipase": {"biological_target": "T1, pancreatic lipase (Homo sapiens, UniProt P16233)", "T1 sequence (P16233 17-465)": "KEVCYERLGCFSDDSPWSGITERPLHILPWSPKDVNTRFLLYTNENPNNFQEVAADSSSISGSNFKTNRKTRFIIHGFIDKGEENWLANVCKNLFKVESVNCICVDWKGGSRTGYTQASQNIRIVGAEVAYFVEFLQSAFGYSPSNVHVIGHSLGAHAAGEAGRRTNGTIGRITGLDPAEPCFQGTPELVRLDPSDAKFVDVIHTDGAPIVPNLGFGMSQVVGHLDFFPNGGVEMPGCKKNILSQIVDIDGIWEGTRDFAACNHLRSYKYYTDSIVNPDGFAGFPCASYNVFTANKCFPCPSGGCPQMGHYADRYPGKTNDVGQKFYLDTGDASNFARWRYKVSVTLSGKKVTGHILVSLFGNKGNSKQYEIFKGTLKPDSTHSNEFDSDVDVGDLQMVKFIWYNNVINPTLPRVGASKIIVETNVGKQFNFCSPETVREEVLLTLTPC", "experiment": "Lipase inhibition by β-lactones in microtiter well plates", "assay_type": "biochemical", "conditions": "FIGS. 13A-E", "protocol": "Cis and trans-isomers of β-lactones were synthesized and tested separately. […] These reactions were conducted in microtiter well plates so the inhibition of the lipase can be measured in a high-throughput manner such that hundreds or thousands of β-lactones can be rapidly screened. In addition, fatty acyl-CoA substrates can be combined with OleADC and lipase and lipase inhibition can be detected. Moreover, lipase may be substituted with proteasomes, penicillin binding proteins, pathogenic bacteria, or cancer cells and inhibitory activity of one or a plurality of β-lactones detected."}, "X. campestris OleB": {"biological_target": "X. campestris OleB (Xanthomonas campestris pv. campestris, UniProt Q8PDW8)", "sequence (Q8PDW8 whole entry)": "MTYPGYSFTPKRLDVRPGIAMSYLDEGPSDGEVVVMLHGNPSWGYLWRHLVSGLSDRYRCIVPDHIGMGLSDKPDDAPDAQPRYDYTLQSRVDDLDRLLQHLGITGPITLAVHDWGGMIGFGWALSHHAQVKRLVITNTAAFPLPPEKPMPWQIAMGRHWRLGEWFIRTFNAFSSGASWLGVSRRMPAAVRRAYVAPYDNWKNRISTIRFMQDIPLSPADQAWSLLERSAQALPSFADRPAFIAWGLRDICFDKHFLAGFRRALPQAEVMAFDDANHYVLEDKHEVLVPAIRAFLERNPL", "experiment": "OleB reactions with β-lactone followed by 1H-NMR", "assay_type": "biochemical", "conditions": "for β-lactone that underwent decarboxylation to cis-olefin: 1.0 mg OleB, overnight, room temperature, 1H-NMR"}, "Xc OleB": {"biological_target": "Xc OleB (Xanthomonas campestris pv. campestris, UniProt Q8PDW8)", "sequence (Q8PDW8 whole entry)": "as above", "experiment": "OleB reactions with haloalkanes (GC-FID/MS)", "assay_type": "biochemical", "conditions": "monitored by GC-FID/MS", "protocol": "The following haloalkane substrates were dissolved in ethanol to a concentration of 5 mM for testing with Xc OleB: 1-iodobutane, 1,3-diiodobutane,1-chlorobutane, 1-bramopentane, 1-chlorohexane, 1-bromooctane, 1-iodoundecane, and 7-(bromomethyl)pentadecane. Reactions were carried out in glass GC vials contained purified OleB (40 μg) and 10 μL of substrate in 500 μL, of 200 mM NaCl, 20 mM NaPO4 at pH 7.4. Reactions were incubated at room temperature overnight, followed by extraction with tert-butyl methylether (MTBE). The MTBE extract was transferred to a clean GC vial and analyzed by gas chromatography/mass spectrometry (GC/MS Agilent 7890a & 5975c with an Agilent J&W bd-ms1 column 30 m length, 0.25 mm diameter, 0.25 μm film)."}, "human pancreatic lipase": {"biological_target": "human pancreatic lipase (Homo sapiens, UniProt P16233)", "conditions": "cited from earlier work"}, "OleB": {"biological_target": "OleB (Xanthomonas campestris pv. campestris, UniProt Q8PDW8)", "sequence (Q8PDW8 whole entry)": "as above", "experiment": "MALDI-TOF of acyl-enzyme intermediate with haloalkane", "assay_type": "binding", "conditions": "wild type OleB", "protocol": "To identify an acyl-enzyme intermediate, Matrix Assisted Laser Desorption Ionization (MALDI) was carried out on wild type OleB and OleBD114A proteins that had been reacted with 7-(bromornethyl)pentadecane (TCI). These two substrates contain the reactive bromomethyl group in the middle of a long alkyl chain, thereby mimicking the β-lactone substrate of OleB. Reactions contained 500 μM substrate and 40 μg of OleB in 100 μL of buffer (20 mM NaCl, 5 mM NaPO4, pH 7.4). Reaction were prepared for MALDI using standard C4 ZipTip (Millipore) procedures and spotted on a plate with sinapinic acid. Samples were analyzed on a Bruker Autoflex Speed MALDI-TOF."}, "human 20S protease": {"biological_target": "human 20S protease (Homo sapiens, UniProt P28072+P28074+Q99436)", "conditions": "cited from earlier work"}, "[1]": {"biological_target": "ClpP protease of Mycobacterium tuberculosis (Mycobacterium tuberculosis, UniProt P9WPC3+P9WPC5)", "sequence (P9WPC5 whole entry)": "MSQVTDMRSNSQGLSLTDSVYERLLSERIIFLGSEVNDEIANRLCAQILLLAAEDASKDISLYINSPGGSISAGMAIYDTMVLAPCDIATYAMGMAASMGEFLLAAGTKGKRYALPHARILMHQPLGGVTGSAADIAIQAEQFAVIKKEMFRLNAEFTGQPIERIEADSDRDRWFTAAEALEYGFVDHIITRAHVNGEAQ", "sequence (P9WPC3 whole entry)": "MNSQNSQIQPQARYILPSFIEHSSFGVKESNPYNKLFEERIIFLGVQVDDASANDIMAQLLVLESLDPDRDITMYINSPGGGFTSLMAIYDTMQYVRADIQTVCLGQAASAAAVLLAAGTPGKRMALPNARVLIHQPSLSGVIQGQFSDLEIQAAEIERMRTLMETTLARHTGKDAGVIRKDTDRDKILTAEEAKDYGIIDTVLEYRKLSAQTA", "conditions": "cited from earlier work"}},
  "data": [
    {"molecule": "CCCCCCCCCCC[C@@H](C[C@@H]1OC(=O)[C@H]1CCCCCC)OC(=O)[C@H](CC(C)C)NC=O", "note": "[Orlistat, tetrahydrolipstatin]", "values": [
      {"measurement": "lipase inhibitory activity", "setting": "pancreatic lipase", "value": "inhibits pancreatic lipase at nanogram levels"}
    ]},
    {"molecule": "CCCCCCCCCC1OC(=O)C1CCCCCCCC", "note": "(stereo not drawn) [trans-β-lactone, 3-octyl-4-nonyl-2-oxetanone]", "values": [
      {"measurement": "β-lactone that underwent decarboxylation to cis-olefin", "setting": "X. campestris OleB", "value": 4, "unit": "%"}
    ]},
    {"molecule": "CCCCCl", "note": "[1-chlorobutane]", "values": [
      {"measurement": "dehalogenase activity towards haloalkane substrate", "setting": "Xc OleB", "value": "No detectable activity"}
    ]},
    {"molecule": "CCCCC/C=C\\C/C=C\\C[C@@H](C[C@@H]1OC(=O)[C@H]1CCCCCC)OC(=O)[C@H](CC(C)C)NC=O", "note": "[lipstatin]", "values": [
      {"measurement": "inhibition of human pancreatic lipase", "setting": "human pancreatic lipase", "value": "inhibiting human pancreatic lipase"}
    ]},
    {"molecule": "CCCCCCBr", "note": "[1-bromohexane]", "values": [
      {"measurement": "dehalogenase activity towards haloalkane substrate", "setting": "Xc OleB", "value": "No detectable activity"}
    ]},
    {"molecule": "CCCCCCCCCC1OC(=O)C1CCCCCCCC", "note": "(stereo not drawn) [cis-β-lactone, 3-octyl-4-nonyl-2-oxetanone]", "values": [
      {"measurement": "β-lactone that underwent decarboxylation to cis-olefin", "setting": "X. campestris OleB", "value": 47, "unit": "%"},
      {"measurement": "cis-β-lactone starting material converted to cis-olefin", "setting": "X. campestris OleB; 2 mg of OleB", "value": 54, "unit": "%"},
      {"measurement": "cis-β-lactone starting material converted to cis-olefin", "setting": "X. campestris OleB; 4 mg of OleB", "value": 63, "unit": "%"}
    ]},
    {"molecule": "CCCCI", "note": "[1-iodobutane]", "values": [
      {"measurement": "dehalogenase activity towards haloalkane substrate", "setting": "Xc OleB", "value": "No detectable activity"}
    ]},
    {"molecule": "CCCCCCCCCCCI", "note": "[1-iodoundecane]", "values": [
      {"measurement": "dehalogenase activity towards haloalkane substrate", "setting": "Xc OleB", "value": "No detectable activity"}
    ]},
    {"molecule": "CCCCBr", "note": "[1-bromobutane]", "values": [
      {"measurement": "dehalogenase activity towards haloalkane substrate", "setting": "Xc OleB", "value": "No detectable activity"}
    ]},
    {"molecule": "CCCCCCCCC(CBr)CCCCCC", "note": "(stereo not shown) [7-(bromomethyl)pentadecane]", "values": [
      {"measurement": "dehalogenase activity towards haloalkane substrate", "setting": "Xc OleB", "value": "No detectable activity"},
      {"measurement": "acyl-enzyme intermediate formation (mass shift)", "setting": "OleB", "value": "forms a stable acyl-enzyme intermediate"}
    ]},
    {"molecule": "salinosporamide", "values": [
      {"measurement": "inhibition of human 20S protease function", "setting": "human 20S protease", "value": "inhibit human 20S protease function"}
    ]},
    {"molecule": "CCCCCCCl", "note": "[1-cholohexane]", "values": [
      {"measurement": "dehalogenase activity towards haloalkane substrate", "setting": "Xc OleB", "value": "No detectable activity"}
    ]},
    {"molecule": "CCCC1OC(=O)C1Cc1ccccc1", "note": "(stereo not shown) [3-benzyl, 4-propyl oxetanone]", "values": [
      {"measurement": "inhibition of ClpP protease", "setting": "[1]", "value": "inhibit the ClpP protease of Mycobacterium tuberculosis"}
    ]}
  ]
}
